Measured values published in PubChem BioAssay (NCI).
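Tested at 5 concentrations; 48 h exposure; 96-well plates; endpoints linearly interpolated, else capped at highest concentration. At the GI50, growth is halved. TGI: concentration producing complete growth inhibition.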

Assays:
Assay in all cases: DTP human tumour cell line panel, 48 h
786-0 renal = system: 786-0 renal
OVCAR-8 ovarian = system: OVCAR-8 ovarian
KM12 colon = system: KM12 colon
A549 NSCLC = system: A549 NSCLC
LOX IMVI melanoma = system: LOX IMVI melanoma
HOP-62 NSCLC = system: HOP-62 NSCLC
CCRF-CEM leukemia = system: CCRF-CEM leukemia
UO-31 renal = system: UO-31 renal
TK-10 renal = system: TK-10 renal
IGROV1 ovarian = system: IGROV1 ovarian
HCC-2998 colon = system: HCC-2998 colon
OVCAR-5 ovarian = system: OVCAR-5 ovarian
SR leukemia = system: SR leukemia
SK-MEL-5 melanoma = system: SK-MEL-5 melanoma
SNB-75 CNS = system: SNB-75 CNS
UACC-257 melanoma = system: UACC-257 melanoma
HCT-15 colon = system: HCT-15 colon
DU-145 prostate = system: DU-145 prostate
MCF7 breast = system: MCF7 breast
COLO 205 colon = system: COLO 205 colon
PC-3 prostate = system: PC-3 prostate
MDA-MB-435 = system: MDA-MB-435
HOP-92 NSCLC = system: HOP-92 NSCLC
CAKI-1 renal = system: CAKI-1 renal
SNB-19 CNS = system: SNB-19 CNS
HL-60(TB) leukemia = system: HL-60(TB) leukemia
SW-620 colon = system: SW-620 colon
NCI-H522 lung = system: NCI-H522 lung
UACC-62 melanoma = system: UACC-62 melanoma
HCT-116 colon = system: HCT-116 colon
M14 melanoma = system: M14 melanoma
EKVX NSCLC = system: EKVX NSCLC
ACHN renal = system: ACHN renal
SK-MEL-28 melanoma = system: SK-MEL-28 melanoma
OVCAR-4 ovarian = system: OVCAR-4 ovarian
NCI-H460 lung = system: NCI-H460 lung
HT29 colon = system: HT29 colon
RXF 393 renal = system: RXF 393 renal
MDA-MB-231 breast = system: MDA-MB-231 breast
NCI-H23 lung = system: NCI-H23 lung
SK-OV-3 ovarian = system: SK-OV-3 ovarian
U251 CNS = system: U251 CNS
T-47D breast = system: T-47D breast
SK-MEL-2 melanoma = system: SK-MEL-2 melanoma
HS 578T breast = system: HS 578T breast
SF-539 CNS = system: SF-539 CNS
SF-268 CNS = system: SF-268 CNS
MALME-3M melanoma = system: MALME-3M melanoma
SF-295 CNS = system: SF-295 CNS
RPMI-8226 leukemia = system: RPMI-8226 leukemia
NCI/ADR-RES ovarian = system: NCI/ADR-RES ovarian
K-562 leukemia = system: K-562 leukemia
OVCAR-3 ovarian = system: OVCAR-3 ovarian
MOLT-4 leukemia = system: MOLT-4 leukemia
MDA-MB-468 breast = system: MDA-MB-468 breast
SN12C renal = system: SN12C renal
A498 renal = system: A498 renal
BT-549 breast = system: BT-549 breast
NCI-H226 lung = system: NCI-H226 lung

O=C(CS(=O)(=O)c1oc(-c2ccc(Cl)cc2)nc1S(=O)(=O)c1ccc(Cl)cc1)N1CCOCC1
GI50 (786-0 renal): 7.65 µM | TGI (786-0 renal): 21.8 µM | GI50 (OVCAR-8 ovarian): 15.4 µM | TGI (OVCAR-8 ovarian): 35.4 µM | GI50 (KM12 colon): 29.5 µM | TGI (KM12 colon): > 100 µM | GI50 (A549 NSCLC): 45.9 µM | TGI (A549 NSCLC): > 100 µM | GI50 (LOX IMVI melanoma): 1840 nM | TGI (LOX IMVI melanoma): 4.27 µM | GI50 (HOP-62 NSCLC): 18.1 µM | TGI (HOP-62 NSCLC): 47.3 µM | GI50 (CCRF-CEM leukemia): 1680 nM | TGI (CCRF-CEM leukemia): 24.2 µM | GI50 (UO-31 renal): 8.79 µM | TGI (UO-31 renal): 21.1 µM | GI50 (TK-10 renal): 14.3 µM | TGI (TK-10 renal): 27.8 µM | GI50 (IGROV1 ovarian): 11 µM | TGI (IGROV1 ovarian): 23.7 µM | GI50 (HCC-2998 colon): 17.2 µM | TGI (HCC-2998 colon): 40.8 µM | GI50 (OVCAR-5 ovarian): 13.6 µM | TGI (OVCAR-5 ovarian): 31.6 µM | GI50 (SR leukemia): 2860 nM | TGI (SR leukemia): > 100 µM | GI50 (SK-MEL-5 melanoma): 24.3 µM | TGI (SK-MEL-5 melanoma): 86.3 µM | GI50 (SNB-75 CNS): 4.89 µM | TGI (SNB-75 CNS): 23.2 µM | GI50 (UACC-257 melanoma): 15.4 µM | TGI (UACC-257 melanoma): 30.2 µM | GI50 (HCT-15 colon): 2270 nM | TGI (HCT-15 colon): 5.68 µM | GI50 (DU-145 prostate): 12.3 µM | TGI (DU-145 prostate): 24.8 µM | GI50 (MCF7 breast): 4 µM | TGI (MCF7 breast): 18.5 µM | GI50 (COLO 205 colon): 11.6 µM | TGI (COLO 205 colon): 55.9 µM | GI50 (PC-3 prostate): 11.9 µM | TGI (PC-3 prostate): 31.5 µM | GI50 (MDA-MB-435): 12 µM | TGI (MDA-MB-435): 25.7 µM | GI50 (HOP-92 NSCLC): 10.7 µM | TGI (HOP-92 NSCLC): 28.6 µM | GI50 (CAKI-1 renal): 6.63 µM | TGI (CAKI-1 renal): 19.4 µM | GI50 (SNB-19 CNS): 27.5 µM | TGI (SNB-19 CNS): > 100 µM | GI50 (HL-60(TB) leukemia): 4.49 µM | TGI (HL-60(TB) leukemia): 34.9 µM | GI50 (SW-620 colon): 2060 nM | TGI (SW-620 colon): 4.8 µM | GI50 (NCI-H522 lung): 1640 nM | TGI (NCI-H522 lung): 3.51 µM | GI50 (UACC-62 melanoma): 11.1 µM | TGI (UACC-62 melanoma): 23.8 µM | GI50 (HCT-116 colon): 3.04 µM | TGI (HCT-116 colon): 11.4 µM | GI50 (M14 melanoma): 6.75 µM | TGI (M14 melanoma): 21 µM | GI50 (EKVX NSCLC): 12.1 µM | TGI (EKVX NSCLC): 26.4 µM | GI50 (ACHN renal): 3.17 µM | TGI (ACHN renal): 11.3 µM | GI50 (SK-MEL-28 melanoma): 12.1 µM | TGI (SK-MEL-28 melanoma): 24.5 µM | GI50 (OVCAR-4 ovarian): 12.7 µM | TGI (OVCAR-4 ovarian): 27.6 µM | GI50 (NCI-H460 lung): 16.5 µM | TGI (NCI-H460 lung): 39.4 µM | GI50 (HT29 colon): 4.32 µM | TGI (HT29 colon): 40.2 µM | GI50 (RXF 393 renal): 2580 nM | TGI (RXF 393 renal): 8.82 µM | GI50 (MDA-MB-231 breast): 6.7 µM | TGI (MDA-MB-231 breast): 19.3 µM | GI50 (NCI-H23 lung): 13.4 µM | TGI (NCI-H23 lung): 26.5 µM | GI50 (SK-OV-3 ovarian): 40.8 µM | TGI (SK-OV-3 ovarian): > 100 µM | GI50 (U251 CNS): 38 µM | TGI (U251 CNS): > 100 µM | GI50 (T-47D breast): 3.32 µM | TGI (T-47D breast): 16.3 µM | GI50 (SK-MEL-2 melanoma): 16.7 µM | TGI (SK-MEL-2 melanoma): 32.4 µM | GI50 (HS 578T breast): 7.9 µM | TGI (HS 578T breast): 36.4 µM | GI50 (SF-539 CNS): 7.94 µM | TGI (SF-539 CNS): 20.5 µM | GI50 (SF-268 CNS): 15.1 µM | TGI (SF-268 CNS): 33.7 µM | GI50 (MALME-3M melanoma): 2810 nM | TGI (MALME-3M melanoma): 9.77 µM | GI50 (SF-295 CNS): 16.9 µM | TGI (SF-295 CNS): 54.7 µM | GI50 (RPMI-8226 leukemia): 5.2 µM | TGI (RPMI-8226 leukemia): > 100 µM | GI50 (NCI/ADR-RES ovarian): 14.5 µM | TGI (NCI/ADR-RES ovarian): 31.2 µM | GI50 (K-562 leukemia): 2140 nM | TGI (K-562 leukemia): > 100 µM | GI50 (OVCAR-3 ovarian): 3.3 µM | TGI (OVCAR-3 ovarian): 10.5 µM | GI50 (MOLT-4 leukemia): 2540 nM | TGI (MOLT-4 leukemia): 18.7 µM | GI50 (MDA-MB-468 breast): 2520 nM | TGI (MDA-MB-468 breast): 8.07 µM | GI50 (SN12C renal): 12.1 µM | TGI (SN12C renal): 25.8 µM | GI50 (A498 renal): 26.8 µM | TGI (A498 renal): 93.4 µM | GI50 (BT-549 breast): 4.64 µM | TGI (BT-549 breast): 16.8 µM | GI50 (NCI-H226 lung): 22.9 µM | TGI (NCI-H226 lung): 91 µM
